# Experiments:
# human orexin-2 receptor [1] = target: T1, human orexin-2 receptor (Homo sapiens (Human), UniProt O43614); test: radioligand binding assay, hOX2R BIND; conditions: membranes from CHO cells expressing OX2 receptor; read-out: hOX2R BIND hKi
# Experimental: (§1) In a typical experiment the OX1 and OX2 receptor antagonistic activity of the compounds of the present invention was determined in accordance with the following experimental method. For intracellular calcium measurements, Chinese hamster ovary (CHO) cells expressing the rat orexin-1 receptor or the human orexin-2 receptor, are grown in Iscove's modified DMEM containing 2 mM L-glutamine, […], 1% hypoxanthine-thymidine supplement, 100 U/ml penicillin, 100 μg/ml streptomycin and 10% heat-inactivated fetal calf serum (FCS). The cells are seeded at 20,000 cells/well into Becton-Dickinson black 384-well clear bottom sterile plates coated with poly-D-lysine. All reagents were from GIBCO-Invitrogen Corp. The seeded plates are incubated overnight at 37° C. and 5% CO2. Ala-6,12 human orexin-A as the agonist is prepared as a 1 mM stock solution in 1% bovine serum albumin (BSA) and diluted in assay buffer (HBSS containing 20 mM HEPES, 0.1% BSA and 2.5 mM probenecid, pH7.4) for use in the assay at a final concentration of 70 pM. Test compounds are prepared as 10 mM stock solution in DMSO, then diluted in 384-well plates, first in DMSO, then assay buffer. On the day of the assay, cells are washed 3 times with 100 μl assay buffer and then incubated for 60 min (37° C., 5% CO2) in 60 μl assay buffer containing 1 μM Fluo-4AM ester, 0.02% pluronic acid, and 1% BSA. The dye loading solution is then aspirated and cells are washed 3 times with 100 μl assay buffer. 30 μl of that same buffer is left in each well. Within the Fluorescent Imaging Plate Reader (FLIPR, Molecular Devices), test compounds are added to the plate in a volume of 25 μl, incubated for 5 min and finally 25 μl of agonist is added. Fluorescence is measured for each well at 1 second intervals for 5 minutes and the height of each fluorescence peak is compared to the height of the fluorescence peak induced by 70 pM Ala-6,12 orexin-A with buffer in place of antagonist. […] Alternatively, compound potency can be assessed by a radioligand binding assay (described in Bergman et. al. Bioorg. Med. Chem. Lett. 2008, 18, 1425-1430) in which the inhibition constant (Ki) is determined in membranes prepared from CHO cells expressing either the OX1 or OX2 receptor. The intrinsic orexin receptor antagonist activity of a compound which may be used in the present invention may be determined by these assays.
# human orexin-2 receptor [2] = target: T1, human orexin-2 receptor; test: FLIPR Ca2+ Flux Assay, hOX2R FLIPR; assay type: cell-based; conditions: CHO cells, 70 pM Ala-6,12 human orexin-A agonist
# Experimental: as §1
# [3] = target: hOX1R (orexin-1 receptor) (Rattus norvegicus, UniProt P56718); test: FLIPR Ca2+ Flux Assay, hOX1R FLIPR; assay type: cell-based; conditions: CHO cells, 70 pM Ala-6,12 human orexin-A agonist
# Experimental: as §1
# T1 sequence (O43614 whole entry): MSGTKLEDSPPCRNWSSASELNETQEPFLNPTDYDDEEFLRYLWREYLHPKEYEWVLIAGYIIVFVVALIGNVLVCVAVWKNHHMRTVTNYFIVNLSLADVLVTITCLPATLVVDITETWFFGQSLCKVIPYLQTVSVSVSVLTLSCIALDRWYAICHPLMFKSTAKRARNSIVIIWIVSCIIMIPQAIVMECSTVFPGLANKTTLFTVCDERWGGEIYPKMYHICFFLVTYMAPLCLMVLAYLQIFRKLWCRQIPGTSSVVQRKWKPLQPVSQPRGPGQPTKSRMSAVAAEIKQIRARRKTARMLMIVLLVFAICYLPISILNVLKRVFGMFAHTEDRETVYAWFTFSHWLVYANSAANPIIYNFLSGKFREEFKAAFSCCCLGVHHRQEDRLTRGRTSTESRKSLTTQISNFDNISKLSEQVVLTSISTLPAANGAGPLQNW
Structure (SMILES),Ki (human orexin-2 receptor [1]) [nM],IC50 (human orexin-2 receptor [2]) [nM],IC50 [3] [nM]
"COC(=O)c1c(C#N)ccnc1O[C@@H]1CC[C@@H](C)N(C(=O)c2ccccc2-n2nccn2)C1 [Example 1, Methyl 4-cyano-2-{[(3R,6R)-6-methyl-1-{[2-(2H-1,2,3-triazol-2-yl)phenyl]carbonyl}piperidin-3-yl]oxy}pyridine-3-carboxylate]",0.46,19,749
"COC(=O)c1c(C#N)ccnc1O[C@@H]1CC[C@@H](C)N(C(=O)c2ccccc2-c2nc(C)no2)C1 [Example 2, Methyl 4-cyano-2-{[(3R,6R)-6-methyl-1-{[2-(3-methyl-1,2,4-oxadiazol-5-yl)phenyl]carbonyl}piperidin-3-yl]oxy}pyridine-3-carboxylate]",0.37,20.8,584
"COC(=O)c1c(C#N)ccnc1O[C@@H]1CC[C@@H](C)N(C(=O)c2ccc(OC)nc2-n2nccn2)C1 [Example 3, methyl 4-cyano-2-{[(3R,6R)-1-{[6-methoxy-2-(2H-1,2,3-triazol-2-yl)pyridin-3-yl]carbonyl}-6-methylpiperidin-3-yl]oxy}pyridine-3-carboxylate]",1.9,33.8,–
"COC(=O)c1c(C#N)ccnc1O[C@@H]1CC[C@@H](C)N(C(=O)c2cccc(F)c2-n2nccn2)C1 [Example 4, methyl 4-cyano-2-{[(3R,6R)-1-{[3-fluoro-2-(2H-1,2,3-triazol-2-yl)phenyl]carbonyl}-6-methylpiperidin-3-yl]oxy}pyridine-3-carboxylate]",0.44,15.7,1020
"COC(=O)c1c(C#N)ccnc1O[C@@H]1CC[C@@H](C)N(C(=O)c2ccc(F)cc2-n2nccn2)C1 [Example 5, methyl 4-cyano-2-{[(3R,6R)-1-{[4-fluoro-2-(2H-1,2,3-triazol-2-yl)phenyl]carbonyl}-6-methylpiperidin-3-yl]oxy}pyridine-3-carboxylate]",0.66,21.8,1010
"COC(=O)c1c(C#N)ccnc1O[C@@H]1CC[C@@H](C)N(C(=O)c2cc(F)ccc2-n2nccn2)C1 [Example 6, methyl 4-cyano-2-{[(3R,6R)-1-{[5-fluoro-2-(2H-1,2,3-triazol-2-yl)phenyl]carbonyl}-6-methylpiperidin-3-yl]oxy}pyridine-3-carboxylate]",0.42,18.2,971
"COC(=O)c1c(C#N)ccnc1O[C@@H]1CC[C@@H](C)N(C(=O)c2c(F)cccc2-n2nccn2)C1 [Example 7, methyl 4-cyano-2-{[(3R,6R)-1-{[2-fluoro-6-(2H-1,2,3-triazol-2-yl)phenyl]carbonyl}-6-methylpiperidin-3-yl]oxy}pyridine-3-carboxylate]",0.33,24,432
"COC(=O)c1c(C#N)ccnc1O[C@@H]1CC[C@@H](C)N(C(=O)c2cc(F)ccc2-c2nc(C)no2)C1 [Example 8, methyl 4-cyano-2-{[(3R,6R)-1-{[5-fluoro-2-(3-methyl-1,2,4-oxadiazol-5-yl)phenyl]carbonyl}-6-methylpiperidin-3-yl]oxy}pyridine-3-carboxylate]",0.44,24.9,1470
"COC(=O)c1c(C#N)ccnc1O[C@@H]1CC[C@@H](C)N(C(=O)c2c(F)cccc2-c2nc(C)no2)C1 [Example 9, methyl 4-cyano-2-{[(3R,6R)-1-{[2-fluoro-6-(3-methyl-1,2,4-oxadiazol-5-yl)phenyl]carbonyl}-6-methylpiperidin-3-yl]oxy}pyridine-3-carboxylate]",1.1,38.8,–
"COC(=O)c1c(C#N)ccnc1O[C@@H]1CC[C@@H](C)N(C(=O)c2ccccc2-c2noc(C)n2)C1 [Example 10, methyl 4-cyano-2-{[(3R,6R)-6-methyl-1-{[2-(5-methyl-1,2,4-oxadiazol-3-yl)phenyl]carbonyl}piperidin-3-yl]oxy}pyridine-3-carboxylate]",0.53,6.5,698
"COC(=O)c1c(C#N)ccnc1O[C@@H]1CC[C@@H](C)N(C(=O)c2cccc(F)c2-c2noc(C)n2)C1 [Example 11, methyl 4-cyano-2-{[(3R,6R)-1-{[3-fluoro-2-(5-methyl-1,2,4-oxadiazol-3-yl)phenyl]carbonyl}-6-methylpiperidin-3-yl]oxy}pyridine-3-carboxylate]",0.5,16.2,956
"COC(=O)c1c(C#N)ccnc1O[C@@H]1CC[C@@H](C)N(C(=O)c2ccc(F)cc2-c2noc(C)n2)C1 [Example 12, methyl 4-cyano-2-{[(3R,6R)-1-{[4-fluoro-2-(5-methyl-1,2,4-oxadiazol-3-yl)phenyl]carbonyl}-6-methylpiperidin-3-yl]oxy}pyridine-3-carboxylate]",1.2,30.2,–
"COC(=O)c1c(C#N)ccnc1O[C@@H]1CC[C@@H](C)N(C(=O)c2cc(F)ccc2-c2noc(C)n2)C1 [Example 13, methyl 4-cyano-2-{[(3R,6R)-1-{[5-fluoro-2-(5-methyl-1,2,4-oxadiazol-3-yl)phenyl]carbonyl}-6-methylpiperidin-3-yl]oxy}pyridine-3-carboxylate]",0.5,16.8,1030
"COC(=O)c1c(C#N)ccnc1O[C@@H]1CC[C@@H](C)N(C(=O)c2c(F)cccc2-c2noc(C)n2)C1 [Example 14, methyl 4-cyano-2-{[(3R,6R)-1-{[2-fluoro-6-(5-methyl-1,2,4-oxadiazol-3-yl)phenyl]carbonyl}-6-methylpiperidin-3-yl]oxy}pyridine-3-carboxylate]",0.99,14.5,–
"COC(=O)c1c(C#N)ccnc1O[C@@H]1CC[C@@H](C)N(C(=O)c2ccc(F)cc2-c2nc(C)no2)C1 [Example 15, methyl 4-cyano-2-{[(3R,6R)-1-{[4-fluoro-2-(3-methyl-1,2,4-oxadiazol-5-yl)phenyl]carbonyl}-6-methylpiperidin-3-yl]oxy}pyridine-3-carboxylate]",2.2,31.8,3080
"COC(=O)c1c(C#N)ccnc1O[C@@H]1CC[C@@H](C)N(C(=O)c2cccc(C)c2-n2nccn2)C1 [Example 16, methyl 4-cyano-2-{[(3R,6R)-6-methyl-1-{[3-methyl-2-(2H-1,2,3-triazol-2-yl)phenyl]carbonyl}piperidin-3-yl]oxy}pyridine-3-carboxylate]",0.52,27.7,–
"COC(=O)c1c(C#N)ccnc1O[C@@H]1CC[C@@H](C)N(C(=O)c2ccc(C)cc2-n2nccn2)C1 [Example 17, methyl 4-cyano-2-{[(3R,6R)-6-methyl-1-{[4-methyl-2-(2H-1,2,3-triazol-2-yl)phenyl]carbonyl}piperidin-3-yl]oxy}pyridine-3-carboxylate]",0.58,24.3,–
"COC(=O)c1c(C#N)ccnc1O[C@@H]1CC[C@@H](C)N(C(=O)c2cc(C)ccc2-n2nccn2)C1 [Example 18, methyl 4-cyano-2-{[(3R,6R)-6-methyl-1-{[5-methyl-2-(2H-1,2,3-triazol-2-yl)phenyl]carbonyl}piperidin-3-yl]oxy}pyridine-3-carboxylate]",0.48,22,311
"COC(=O)c1c(C#N)ccnc1O[C@@H]1CC[C@@H](C)N(C(=O)c2cccc(F)c2-c2ncccn2)C1 [Example 21, methyl 4-cyano-2-({(3R,6R)-1-[(3-fluoro-2-pyrimidin-2-ylphenyl)carbonyl]-6-methylpiperidin-3-yl}oxy)pyridine-3-carboxylate]",1.2,36.3,–
"COC(=O)c1c(C#N)ccnc1O[C@@H]1CC[C@@H](C)N(C(=O)c2c(F)cccc2-c2ncccn2)C1 [Example 24, methyl 4-cyano-2-({(3R,6R)-1-[(2-fluoro-6-pyrimidin-2-ylphenyl)carbonyl]-6-methylpiperidin-3-yl}oxy)pyridine-3-carboxylate]",0.42,32.8,–
"COC(=O)c1c(C#N)ccnc1O[C@@H]1CC[C@@H](C)N(C(=O)c2ccccc2C2CCC2)C1 [Example 26, Methyl 4-cyano-2-(((3R,6R)-1-(2-cyclobutylbenzoyl)-6-methylpiperidin-3-yl)oxy)nicotinate]",0.26,19.3,–
